We go through 16 compounds from patent publication US11753407B2, “Compounds for treating spinal muscular atrophy” (PTC Therapeutics, Inc., priority 2012, dated 2023).

The structures appear in SMILES notation. Some results are limits rather than exact numbers.

Data set [1] deals with Smn protein in SMA patient fibroblast cells (GM03813). In words: Smn protein assay in cultured cells (SMN HTRF). The following applies: SMA patient fibroblast cells, 48 hours; for maximum fold (Fold) increase of Smn protein: 7-point concentration data, fold relative to vehicle control; for EC1.5x for Smn protein expression: 7-point concentration curve, SMN HTRF, concentration producing 1.5 times Smn protein vs DMSO vehicle control. The data set is classed as cell-based, human. The method in brief:
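Smn protein abundance in treated SMA fibroblasts was measured by HTRF after 48 h compound exposure. The reported EC1.5× is the concentration producing 1.5 times vehicle Smn levels.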

In data set [2] the test system is SMN2 minigene mRNA (SMN2-A minigene) in HEK293H cells. Briefly: SMN2 minigene mRNA splicing RT-qPCR assay in cultured cells. The data set is classed as cell-based, human. The following applies: Homo sapiens, HEK293-H; concentration increasing full length SMN2 mRNA 1.5-fold relative to vehicle-treated cells; HEK293H cells with SMN2-A minigene, 24 hours, 7-point concentration data; read-out: EC1.5x for production of full length SMN2 mRNA. The method in brief:
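Potency reflects the concentration that lifts full-length SMN2 minigene mRNA 1.5-fold above vehicle in stably transfected HEK293H cells after 24 h of treatment. Transcript abundance came from RT-qPCR as (1+E)^−Ct, normalized to GAPDH; endogenous SMN1/SMN2 are not detected.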

In turn, `O=c1cc(-c2ccc3c(c2)OCCO3)nc2ccc(N3CCNCC3)cn12` [Compound 31, 2-(2,3-dihydro-1,4-benzodioxin-6-yl)-7-(piperazin-1-yl)-4H-pyrido[1,2-a]pyrimidin-4-one] displayed a melting point of 230 to 232 °C. In data set [1], the “maximum fold (Fold) increase of Smn protein” value (“maximum fold (Fold) increase” for short) is reported as “* (A maximum fold increase of ≤1.2 is indicated by one star (*))”. The EC (1.5-fold increase) in data set [2] was 1 to 3 µM.

`Cc1cn2nc(-c3cc(=O)n4cc(N5CCC(CN6CCCC6)CC5)ccc4n3)cc2c(C)n1` [Compound 571, 2-(4,6-dimethylpyrazolo[1,5-a]pyrazin-2-yl)-7-[4-(pyrrolidin-1-ylmethyl)piperidin-1-yl]-4H-pyrido[1,2-a]pyrimidin-4-one]: the melting point was in the range of 177 to 180 °C. Also, in data set [1], the “EC1.5x for Smn protein expression” value is “** (an EC1.5× between >1 μM and ≤3 μM is indicated by two stars (**))”; the “maximum fold (Fold) increase” value is “**** (a fold increase between >1.5 and ≤1.65 is indicated by four stars (****))”. In data set [2], the EC (1.5-fold increase) fell in the range of 0.3 to 1 µM.

As for `Cc1cn2cc(-c3ccc4nc(C5CCNCC5)cc(=O)n4c3)cc(F)c2n1` [Compound 410, 7-(8-fluoro-2-methylimidazo[1,2-a]pyridin-6-yl)-2-(piperidin-4-yl)-4H-pyrido[1,2-a]pyrimidin-4-one], the melting point is 295 to 298 °C. Also, in data set [1], the “EC1.5x for Smn protein expression” value is recorded as “**** (an EC1.5x≤0.3 μM is indicated by four stars (****))” and the “maximum fold (Fold) increase” value was “***** (a fold increase >1.65 is indicated by five stars (*****))”. In data set [2], the EC (1.5-fold increase) is under 0.1 µM.

As for `O=c1cc(-c2ccc3nc(C(F)(F)F)cn3c2)nc2ccc(N3CCNCC3)cn12` [Compound 123, 7-(piperazin-1-yl)-2-[2-(trifluoromethyl)imidazo[1,2-a]pyridin-6-yl]-4H-pyrido[1,2-a]pyrimidin-4-one], the melting point lay in the range of 250 to 255 °C. Moreover, the “maximum fold (Fold) increase” value in data set [1] is reported as “* (A maximum fold increase of ≤1.2 is indicated by one star (*))”. Further, the EC (1.5-fold increase) in data set [2] lay within 1 to 3 µM.

`Cc1cn2nc(-c3cc(=O)n4cc(C5CCN(CCO)CC5)cc(C)c4n3)cc2c(C)n1` [Compound 703, 2-(4,6-dimethylpyrazolo[1,5-a]pyrazin-2-yl)-7-[1-(2-hydroxyethyl)piperidin-4-yl]-9-methyl-4H-pyrido[1,2-a]pyrimidin-4-one] showed a melting point of 224 to 233 °C. In data set [1], the “EC1.5x for Smn protein expression” value is “**** (an EC1.5x≤0.3 μM is indicated by four stars (****))” and the “maximum fold (Fold) increase” value is listed as “***** (a fold increase >1.65 is indicated by five stars (*****))”. Also, the EC (1.5-fold increase) in data set [2] is under 0.1 µM.

`Cc1cn2cc(-c3cc(=O)n4cc(N5CCNCC5)ccc4n3)cc(C3CC3)c2n1` [Cpd 714, 2-(8-cyclopropyl-2-methylimidazo[1,2-a]pyridin-6-yl)-7-(piperazin-1-yl)-4H-pyrido[1,2-a]pyrimidin-4-one] had a melting point of 274 to 277 °C. In data set [1], the “EC1.5x for Smn protein expression” value is reported as “**** (an EC1.5x≤0.3 μM is indicated by four stars (****))” and the “maximum fold (Fold) increase” value was “***** (a fold increase >1.65 is indicated by five stars (*****))”. Further, in data set [2], the EC (1.5-fold increase) is under 0.1 µM.

`CCCN1CC=C(c2ccc3nc(-c4cc5c(C)nc(C)cn5n4)cc(=O)n3c2)CC1` [Compound 352, 2-(4,6-dimethylpyrazolo[1,5-a]pyrazin-2-yl)-7-(1-propyl-1,2,3,6-tetrahydropyridin-4-yl)-4H-pyrido[1,2-a]pyrimidin-4-one] came in with a melting point of 191 to 193 °C. Also, in data set [1], the “EC1.5x for Smn protein expression” value is reported as “**** (an EC1.5x≤0.3 μM is indicated by four stars (****))”; the “maximum fold (Fold) increase” value was “**** (a fold increase between >1.5 and ≤1.65 is indicated by four stars (****))”. Moreover, the EC (1.5-fold increase) in data set [2] was under 0.1 µM.

Take `CCCc1nc(C)cn2nc(-c3cc(=O)n4cc(N5C[C@@H](C)N[C@@H](C)C5)ccc4n3)cc12` [Compound 729, 7-[(3R,5S)-3,5-dimethylpiperazin-1-yl]-2-(6-methyl-4-propylpyrazolo[1,5-a]pyrazin-2-yl)-4H-pyrido[1,2-a]pyrimidin-4-one]: the melting point is 249 to 251 °C. Besides, in data set [1], the “EC1.5x for Smn protein expression” value was “*** (an EC1.5× between >0.3 μM and ≤1 μM is indicated by three stars (***))”; the “maximum fold (Fold) increase” value was “***** (a fold increase >1.65 is indicated by five stars (*****))”. In addition, in data set [2], the EC (1.5-fold increase) was in the range of 0.1 to 0.3 µM.

`Cc1nc2ccc(-c3cc(=O)n4cc(N5CCC(N)CC5)ccc4c3)cc2o1` [Compound 326, 7-(4-aminopiperidin-1-yl)-2-(2-methyl-1,3-benzoxazol-6-yl)-4H-quinolizin-4-one] showed a melting point of 288 to 290 °C. Moreover, in data set [1], the “EC1.5x for Smn protein expression” value is “** (an EC1.5× between >1 μM and ≤3 μM is indicated by two stars (**))”; the “maximum fold (Fold) increase” value is “*** (a fold increase between >1.35 and ≤1.5 is indicated by three stars (***))”. Moreover, the EC (1.5-fold increase) in data set [2] lay in the range of 1 to 3 µM.

`COc1ccc(-c2cc(=O)n3cc(N4CCNCC4)ccc3n2)cc1C(F)(F)F` [Compound 67, 2-[4-methoxy-3-(trifluoromethyl)phenyl]-7-(piperazin-1-yl)-4H-pyrido[1,2-a]pyrimidin-4-one] returned a melting point of 177 to 181 °C. Further, in data set [1], the “EC1.5x for Smn protein expression” value is “*** (an EC1.5× between >0.3 μM and ≤1 μM is indicated by three stars (***))”; the “maximum fold (Fold) increase” value was “*** (a fold increase between >1.35 and ≤1.5 is indicated by three stars (***))”. Besides, the EC (1.5-fold increase) in data set [2] was 0.1 to 0.3 µM.

With `Cc1cn2cc(-c3cc(=O)n4cc(N5CCN[C@H](C)C5)ccc4n3)cc(C(F)(F)F)c2n1` [Compound 734, 7-[(3R)-3-methylpiperazin-1-yl]-2-[2-methyl-8-(trifluoromethyl)imidazo[1,2-a]pyridin-6-yl]-4H-pyrido[1,2-a]pyrimidin-4-one], the melting point lay in the range of 303 to 306 °C. Besides, in data set [1], the “EC1.5x for Smn protein expression” value is given as “**** (an EC1.5x≤0.3 μM is indicated by four stars (****))” and the “maximum fold (Fold) increase” value is “***** (a fold increase >1.65 is indicated by five stars (*****))”. Moreover, in data set [2], the EC (1.5-fold increase) was under 0.1 µM.

Take `CCN1C[C@@H]2C[C@H]1CN2c1ccc2nc(-c3cc4c(C)nc(C)cn4n3)cc(=O)n2c1` [Compound 401, 2-(4,6-dimethylpyrazolo[1,5-a]pyrazin-2-yl)-7-[(1S,4S)-5-ethyl-2,5-diazabicyclo[2.2.1]hept-2-yl]-4H-pyrido[1,2-a]pyrimidin-4-one]: the melting point fell in the range of 175 to 177 °C. In data set [1], the “EC1.5x for Smn protein expression” value is “*** (an EC1.5× between >0.3 μM and ≤1 μM is indicated by three stars (***))”; the “maximum fold (Fold) increase” value is reported as “***** (a fold increase >1.65 is indicated by five stars (*****))”. In data set [2], the EC (1.5-fold increase) is 0.1 to 0.3 µM.

As to `CCN1CCC(c2ccc3nc(-c4cc(Cl)c5nc(C)cn5c4)cc(=O)n3c2)CC1` [Compound 518, 2-(8-chloro-2-methylimidazo[1,2-a]pyridin-6-yl)-7-(1-ethylpiperidin-4-yl)-4H-pyrido[1,2-a]pyrimidin-4-one], the melting point is 240 to 246 °C. For the same compound, in data set [1], the “EC1.5x for Smn protein expression” value is given as “**** (an EC1.5x≤0.3 μM is indicated by four stars (****))”; the “maximum fold (Fold) increase” value was “**** (a fold increase between >1.5 and ≤1.65 is indicated by four stars (****))”. Further, in data set [2], the EC (1.5-fold increase) is under 0.1 µM.

`CCc1cc(-c2cc(=O)n3cc(N4CCN(CCO)[C@@H](C)C4)ccc3n2)cn2cc(C)nc12` [Compound 651, 2-(8-ethyl-2-methylimidazo[1,2-a]pyridin-6-yl)-7-[(3S)-4-(2-hydroxyethyl)-3-methylpiperazin-1-yl]-4H-pyrido[1,2-a]pyrimidin-4-one] registered a melting point of 220 to 223 °C. In addition, in data set [1], the “EC1.5x for Smn protein expression” value is on record as “**** (an EC1.5x≤0.3 μM is indicated by four stars (****))” and the “maximum fold (Fold) increase” value is “***** (a fold increase >1.65 is indicated by five stars (*****))”. Besides, in data set [2], the EC (1.5-fold increase) was under 0.1 µM.

In the case of `CCCN1CCN(c2ccc3nc(-c4cc(F)c5nc(C)oc5c4)cc(=O)n3c2)CC1` [Compound 310, 2-(4-fluoro-2-methyl-1,3-benzoxazol-6-yl)-7-(4-propylpiperazin-1-yl)-4H-pyrido[1,2-a]pyrimidin-4-one], the melting point lay in the range of 175 to 178 °C. Besides, in data set [1], the “EC1.5x for Smn protein expression” value was “*** (an EC1.5× between >0.3 μM and ≤1 μM is indicated by three stars (***))”; the “maximum fold (Fold) increase” value is “*** (a fold increase between >1.35 and ≤1.5 is indicated by three stars (***))”. In addition, the EC (1.5-fold increase) in data set [2] is under 0.1 µM.

For the compound `CCc1cc(C2CCN(CC)CC2)cn2c(=O)cc(-c3ccc(OC)c(OC)c3)nc12` [Compound 436, 2-(3,4-dimethoxyphenyl)-9-ethyl-7-(1-ethylpiperidin-4-yl)-4H-pyrido[1,2-a]pyrimidin-4-one], the melting point lay in the range of 157 to 162 °C. For the same compound, the “maximum fold (Fold) increase” value in data set [1] is “** (a fold increase between >1.2 and ≤1.35 is indicated by two stars (**))”. Besides, the EC (1.5-fold increase) in data set [2] lay within 0.3 to 1 µM.
